Measurements as given in ChEMBL document CHEMBL1201862, “PubChem BioAssay data set” (2004).
Active and inactive are the calls of the source.

Legend:
[1] = target: ADP-ribosylation factor GTPase-activating protein 1 (Rattus norvegicus, UniProt Q62848); test: Fluorescence polarization-based biochemical high throughput dose response screening assay to identify inhibitors of ADP-ribosylation factor GTPase activating protein 1 (ARFGAP1).; type: functional
[2] = target: T1, Endoribonuclease toxin MazF (Escherichia coli K-12, UniProt P0AE70); test: activation of MazEF endoribonuclease cleavage – biochemical, fluorescence, single-stranded RNA substrate, uHTS hits, dose response (AID 588481); type: functional
T1 sequence (P0AE70 whole entry): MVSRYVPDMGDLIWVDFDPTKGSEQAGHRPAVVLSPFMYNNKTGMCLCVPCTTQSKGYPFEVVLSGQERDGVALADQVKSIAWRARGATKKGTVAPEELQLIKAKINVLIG

[3] = target: T2, Sentrin-specific protease 1 (Homo sapiens, UniProt Q9P0U3); test: SENP1 catalytic domain blockers, concentration series – biochemical, kinetic FRET, dose response (AID 651697); type: functional; settings: read-out: IC50_Mean
[4] = target: T1, Endoribonuclease toxin MazF; test: substrate-only fluorescence increase artefacts – biochemical, single-stranded RNase substrate, counter-screen for MazEF activator project, dose response (AID 588502); type: functional
[5] = target: T2, Sentrin-specific protease 1; test: Dose response confirmation of small molecule inhibitors of the catalytic domain of the SUMO protease, SENP1 in a FRET assay.; type: functional; settings: read-out: IC50_Mean
[6] = target: Tyrosine-protein phosphatase non-receptor type 22 (Homo sapiens, UniProt Q9Y2R2); test: PTPN22 enzyme inhibitors – biochemical, fluorescence, LYP catalytic domain, selectivity assay for LMPTP inhibitor project, dose response (AID 652006); type: functional; settings: read-out: IC50_Mean
[7] = Counterscreen for activators of the function of SWI/SNF related, matrix associated, actin dependent regulator of chromatin, subfamily a, member 2 (SMARCA2, BRM): Luminescence-based cell-based high throughput dose response assay to identify non-selective compounds using the VP16 reporter assay.; type: functional
[8] = target: T3, DNA repair and recombination protein RAD54-like (Homo sapiens, UniProt Q92698); test: RAD54 Holliday junction migration blockers – biochemical, fluorescence, cherry-picked samples, dose series, confirmation (AID 651657); type: functional
T3 sequence (Q92698 whole entry): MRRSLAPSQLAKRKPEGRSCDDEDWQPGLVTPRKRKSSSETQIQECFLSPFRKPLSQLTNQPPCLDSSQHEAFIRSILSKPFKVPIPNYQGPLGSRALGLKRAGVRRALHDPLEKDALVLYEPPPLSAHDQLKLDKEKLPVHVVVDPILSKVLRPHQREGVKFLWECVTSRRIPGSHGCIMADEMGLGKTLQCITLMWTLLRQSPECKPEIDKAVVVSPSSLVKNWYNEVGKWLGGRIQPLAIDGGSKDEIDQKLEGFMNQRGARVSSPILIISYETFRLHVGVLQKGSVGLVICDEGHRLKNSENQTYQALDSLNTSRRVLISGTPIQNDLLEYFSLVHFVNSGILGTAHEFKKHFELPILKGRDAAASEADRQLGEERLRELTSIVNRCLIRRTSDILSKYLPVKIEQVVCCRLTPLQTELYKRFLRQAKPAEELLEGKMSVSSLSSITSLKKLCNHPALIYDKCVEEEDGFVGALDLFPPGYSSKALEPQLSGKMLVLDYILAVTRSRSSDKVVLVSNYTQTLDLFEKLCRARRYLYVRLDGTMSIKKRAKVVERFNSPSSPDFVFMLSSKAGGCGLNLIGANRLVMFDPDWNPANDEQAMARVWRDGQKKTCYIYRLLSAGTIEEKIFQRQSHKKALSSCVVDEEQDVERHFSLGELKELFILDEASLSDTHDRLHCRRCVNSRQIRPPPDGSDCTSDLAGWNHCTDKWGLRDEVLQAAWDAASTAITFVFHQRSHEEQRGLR

[9] = target: T4, Low molecular weight phosphotyrosine protein phosphatase (Homo sapiens, UniProt P24666); type: functional; settings: read-out: IC50_Mean
[10] = target: T5, DNA repair protein RAD52 homolog (Homo sapiens, UniProt P43351); type: functional, biochemical
T5 sequence (P43351 whole entry): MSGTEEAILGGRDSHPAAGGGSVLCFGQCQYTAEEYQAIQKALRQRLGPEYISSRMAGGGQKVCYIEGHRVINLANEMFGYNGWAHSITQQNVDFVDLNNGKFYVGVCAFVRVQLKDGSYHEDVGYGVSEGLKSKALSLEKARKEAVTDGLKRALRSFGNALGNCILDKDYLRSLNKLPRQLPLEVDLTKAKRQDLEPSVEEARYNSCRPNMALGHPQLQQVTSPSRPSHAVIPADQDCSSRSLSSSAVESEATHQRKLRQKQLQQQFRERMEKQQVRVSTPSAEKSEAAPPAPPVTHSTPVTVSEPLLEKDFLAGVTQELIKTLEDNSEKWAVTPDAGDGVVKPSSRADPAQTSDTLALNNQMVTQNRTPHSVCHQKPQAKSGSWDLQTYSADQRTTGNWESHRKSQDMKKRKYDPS

[11] = target: T4, Low molecular weight phosphotyrosine protein phosphatase; type: functional; settings: read-out: IC50_Mean; remark: listed apart in the source
[12] = target: SWI/SNF-related matrix-associated actin-dependent regulator of chromatin subfamily A member 2 (Homo sapiens, UniProt P51531); test: Luminescence-based cell-based high throughput dose response assay to identify activators of the function of SWI/SNF related, matrix associated, actin dependent regulator of chromatin, subfamily a, member 2 (SMARCA2, BRM).; type: functional
Chain of SWI/SNF-related matrix-associated actin-dependent regulator of chromatin subfamily A member 2 (P51531 whole entry): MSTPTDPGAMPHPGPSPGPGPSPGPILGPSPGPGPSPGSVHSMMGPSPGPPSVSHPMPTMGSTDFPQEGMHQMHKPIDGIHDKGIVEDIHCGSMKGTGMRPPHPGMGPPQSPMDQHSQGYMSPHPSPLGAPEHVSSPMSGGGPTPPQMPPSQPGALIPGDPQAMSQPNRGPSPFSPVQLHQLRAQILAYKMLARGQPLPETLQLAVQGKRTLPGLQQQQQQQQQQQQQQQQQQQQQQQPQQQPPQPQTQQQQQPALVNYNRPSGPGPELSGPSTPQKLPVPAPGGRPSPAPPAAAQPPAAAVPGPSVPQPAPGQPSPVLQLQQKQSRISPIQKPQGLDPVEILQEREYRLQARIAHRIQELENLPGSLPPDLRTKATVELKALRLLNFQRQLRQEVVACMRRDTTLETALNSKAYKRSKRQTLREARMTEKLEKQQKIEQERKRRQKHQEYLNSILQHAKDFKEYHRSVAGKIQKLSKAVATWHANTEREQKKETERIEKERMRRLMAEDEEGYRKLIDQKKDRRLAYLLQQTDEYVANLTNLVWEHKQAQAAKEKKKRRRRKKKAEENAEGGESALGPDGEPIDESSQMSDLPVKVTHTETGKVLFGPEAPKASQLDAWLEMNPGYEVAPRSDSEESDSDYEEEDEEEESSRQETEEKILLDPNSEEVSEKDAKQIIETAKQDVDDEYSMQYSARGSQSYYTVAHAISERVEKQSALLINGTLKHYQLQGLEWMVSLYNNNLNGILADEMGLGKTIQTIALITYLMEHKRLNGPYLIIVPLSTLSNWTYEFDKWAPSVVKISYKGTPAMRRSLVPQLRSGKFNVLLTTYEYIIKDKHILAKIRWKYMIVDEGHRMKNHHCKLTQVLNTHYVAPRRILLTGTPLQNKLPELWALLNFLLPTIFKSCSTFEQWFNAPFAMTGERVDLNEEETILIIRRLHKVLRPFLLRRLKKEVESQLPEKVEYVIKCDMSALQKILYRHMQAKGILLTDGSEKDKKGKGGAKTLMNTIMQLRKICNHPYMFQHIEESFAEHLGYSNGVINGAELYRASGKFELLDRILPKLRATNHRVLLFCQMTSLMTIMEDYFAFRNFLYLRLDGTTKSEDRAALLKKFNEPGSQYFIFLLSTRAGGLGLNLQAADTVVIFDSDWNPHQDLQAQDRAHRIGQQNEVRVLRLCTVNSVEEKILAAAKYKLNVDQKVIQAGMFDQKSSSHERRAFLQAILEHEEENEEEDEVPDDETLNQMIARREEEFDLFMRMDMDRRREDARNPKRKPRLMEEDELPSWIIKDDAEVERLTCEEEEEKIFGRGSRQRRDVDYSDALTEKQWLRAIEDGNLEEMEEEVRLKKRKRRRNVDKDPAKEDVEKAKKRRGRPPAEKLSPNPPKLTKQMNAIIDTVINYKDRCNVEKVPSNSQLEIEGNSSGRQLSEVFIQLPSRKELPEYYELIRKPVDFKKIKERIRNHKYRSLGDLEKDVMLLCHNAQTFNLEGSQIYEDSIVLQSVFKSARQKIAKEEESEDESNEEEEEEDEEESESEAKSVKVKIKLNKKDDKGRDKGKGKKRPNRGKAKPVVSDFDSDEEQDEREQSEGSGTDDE

T4 sequence (P24666 whole entry): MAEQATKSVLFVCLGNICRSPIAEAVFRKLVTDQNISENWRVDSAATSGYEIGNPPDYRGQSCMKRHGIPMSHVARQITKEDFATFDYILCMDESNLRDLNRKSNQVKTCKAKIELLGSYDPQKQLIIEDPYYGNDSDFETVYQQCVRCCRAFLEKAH
T2 sequence (Q9P0U3 whole entry, the tested form may be a part): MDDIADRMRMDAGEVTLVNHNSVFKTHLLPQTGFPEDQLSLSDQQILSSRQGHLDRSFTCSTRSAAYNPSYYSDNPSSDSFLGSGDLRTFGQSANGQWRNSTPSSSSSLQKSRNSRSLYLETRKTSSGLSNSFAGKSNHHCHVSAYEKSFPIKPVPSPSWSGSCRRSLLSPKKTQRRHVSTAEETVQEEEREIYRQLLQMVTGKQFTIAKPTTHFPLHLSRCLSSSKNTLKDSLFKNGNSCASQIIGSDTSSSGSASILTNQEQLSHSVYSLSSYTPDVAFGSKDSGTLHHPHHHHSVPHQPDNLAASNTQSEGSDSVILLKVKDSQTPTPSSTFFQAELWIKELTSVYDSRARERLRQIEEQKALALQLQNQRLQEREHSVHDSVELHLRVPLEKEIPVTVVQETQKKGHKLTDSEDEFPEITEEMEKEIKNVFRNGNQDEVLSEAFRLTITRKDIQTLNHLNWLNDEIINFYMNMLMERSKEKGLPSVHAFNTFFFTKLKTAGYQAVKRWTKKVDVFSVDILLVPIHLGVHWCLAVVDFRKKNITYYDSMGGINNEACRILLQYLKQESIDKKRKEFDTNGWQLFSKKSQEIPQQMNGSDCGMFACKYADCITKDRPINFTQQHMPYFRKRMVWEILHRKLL
Chain of Tyrosine-protein phosphatase non-receptor type 22 (Q9Y2R2 whole entry, the tested form may be a part): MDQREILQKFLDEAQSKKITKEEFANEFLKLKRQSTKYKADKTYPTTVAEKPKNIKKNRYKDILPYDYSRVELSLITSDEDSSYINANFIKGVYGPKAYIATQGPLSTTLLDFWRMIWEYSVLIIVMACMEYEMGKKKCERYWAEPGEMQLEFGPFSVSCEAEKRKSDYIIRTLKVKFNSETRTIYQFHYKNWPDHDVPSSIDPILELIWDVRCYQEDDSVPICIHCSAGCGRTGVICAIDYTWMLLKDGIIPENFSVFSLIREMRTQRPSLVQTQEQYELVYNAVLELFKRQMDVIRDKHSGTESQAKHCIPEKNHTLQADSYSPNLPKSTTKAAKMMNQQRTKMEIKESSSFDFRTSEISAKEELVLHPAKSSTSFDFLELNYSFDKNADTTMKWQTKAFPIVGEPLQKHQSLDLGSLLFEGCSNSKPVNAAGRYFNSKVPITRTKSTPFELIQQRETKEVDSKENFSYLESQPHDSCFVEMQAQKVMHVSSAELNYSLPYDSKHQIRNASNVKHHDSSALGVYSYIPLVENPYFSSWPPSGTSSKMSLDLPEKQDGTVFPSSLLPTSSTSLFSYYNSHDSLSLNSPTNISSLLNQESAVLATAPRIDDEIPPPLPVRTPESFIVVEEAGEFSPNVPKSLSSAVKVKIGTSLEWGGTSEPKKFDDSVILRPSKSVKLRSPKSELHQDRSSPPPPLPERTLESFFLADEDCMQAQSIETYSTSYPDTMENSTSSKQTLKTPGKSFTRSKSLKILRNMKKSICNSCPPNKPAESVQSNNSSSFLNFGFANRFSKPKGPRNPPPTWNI
Chain of ADP-ribosylation factor GTPase-activating protein 1 (Q62848 whole entry): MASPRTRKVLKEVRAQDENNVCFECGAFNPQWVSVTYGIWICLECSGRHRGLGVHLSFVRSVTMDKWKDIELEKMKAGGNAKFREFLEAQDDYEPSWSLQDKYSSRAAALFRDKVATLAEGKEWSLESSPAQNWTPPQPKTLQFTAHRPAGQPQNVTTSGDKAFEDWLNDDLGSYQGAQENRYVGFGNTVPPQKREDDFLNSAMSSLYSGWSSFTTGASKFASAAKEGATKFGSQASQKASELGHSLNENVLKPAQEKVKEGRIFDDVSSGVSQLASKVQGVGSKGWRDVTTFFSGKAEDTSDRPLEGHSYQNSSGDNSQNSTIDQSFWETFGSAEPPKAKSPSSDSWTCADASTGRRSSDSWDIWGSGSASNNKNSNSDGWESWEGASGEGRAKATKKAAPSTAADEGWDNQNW

Cc1ccc2nc(SCC(=O)Nc3cccc(F)c3)nc(=O)n2c1
IC50 [1]: 44.9 µM (inactive)

CN(N=Cc1cccc2cccnc12)c1ccc([N+](=O)[O-])cc1[N+](=O)[O-]
EC50 [2]: > 99 µM (inactive) | IC50 [3]: 8.19 µM (active) | EC50 [4]: 3.55 µM (active) | IC50 [5]: 4.08 µM (active)

Cc1nccc2cc3[nH]c4ccccc4c3cc12
IC50 [6]: 52.5 µM (inactive) | EC50 [7]: > 91.2 µM (inactive) | AC50 [8]: 2.49 µM (active) | IC50 [9]: 3.18 µM (active) | AC50 [10]: 1.96 µM (active) | IC50 [11]: 2.59 µM (active) | EC50 [12]: 5.87 µM (active)
